Experimental data as given in patent publication US20230172940A1, “METHODS OF EXTENDING LIFESPAN BY ADMINISTERING FERROPTOSIS INHIBITORS” (COLLABORATIVE MEDICINAL DEVELOPMENT, LLC, priority 2020, published 2023).
Structures can show the parent of a compound that is named as a salt.

Columns and labels:
Type in all cases: in vivo, Caenorhabditis elegans
C. elegans strain TJ1060 = assay: Glutathione depletion: survival after diethyl maleate (DEM) exposure; conditions: for DEM toxicity (survival): 4-day old worms, 200 μM Lip-1 or 250 μM SIH from late L4
Experimental: Diethyl maleate (DEM; Sigma-Aldrich) was added to neat DMSO and added to molten NGM at 55° C. to a final concentration of 5^o 10^o 15 or 20 mM DEM and 0.5% v/v DMSO. Plates were seeded with OP50 and used within 24 hours. As above^o data was collected at 25 (±1) ° C. using the temperature sensitive-sterile strain TJ1060. A synchronous population was obtained by transferring egg-laying adults to fresh plates at 16° C. for 2-3 hours. The adults were removed and the plates with eggs then transferred to 25° C. to ensure sterility. After 48 hours at 25° C.^o when worms were at the late L4/young adult stage^o 25-35 nematodes were transferred to fresh plates containing either vehicle control^o 250 μM SIH^o or 200 μM Lip-1. Worms were aged at 25° C. for a further 4 days and then transferred to DEM plates. Survival^o determined by touch-provoked movement^o was scored at 24 and 48 hours after exposure to DEM.
Aging studies were also undertaken to determine changes with age of both survival after DEM exposure and basal glutathione levels. Initial populations were obtained as describe above^o with worms aged on standard NGA plates. Note that here we refer to the age of adults as determined by the number of days following the last larval molt and therefore reflects the number of days of adulthood^o not the time since egg.
For survival with increasing DEM dose response and protection by compounds (Lip-1 and SIH), data was plotted as fraction of animal alive with upper and lower 95% confidence interval, using the Wilson ‘score’ method using asymptotic variance and fitted with a sigmoidal curve (Prism). Pairwise comparisons of treated groups versus control at each concentration of DEM was determined using the N-1 chi-squared test.

DAF-16 = DAF-16 localization (reporter strain TJ356); conditions: for DAF-16 nuclear translocation: 250 μM SIH, 200 μM Lip-1
Experimental: Wild type (strain N2)^o the temperature sensitive-sterile strain TJ1060: spe-9(hc88); fer-15(b26) and the DAF-16 reporter strain TJ356: zls356 [Pdaf-16::daf-16a/b::gfp+rol-6(su1006)] were obtained from the Caenorhabditis Genetics Center. The wild type strain was maintained at 20° C. on standard nematode growth media (NGM) and aged at 20° C. or 25° C. as required. TJ1060 was maintained at 16° C. and also aged at 20° C. or 25° C. as required. TJ1060 was predominately used to remove the inconvenience of progeny production and can be regarded as a proxy for wild type.
We considered whether the higher levels of glutathione in animals treated with SIH ( ) could reflect a hormetic response to sublethal oxidative stress, which has been described for SIH at low concentrations (10 μM) combining with the cellular labile iron pool within hepatocellular carcinoma cells in culture. […] To further discount possible off-target stress responses elicited by our interventions, we interrogated DAF-16 localization. Nuclear localization of the DAF-16 transcription factor is known to be an indicator of […], which occurs under stress conditions. […] Taken together, these findings argue against hormesis mediating the benefits of SIH or Lip-1 under these conditions in C. elegans.

malondialdehyde (MDA) = assay: Lipid peroxidation: malondialdehyde (TBARS assay); conditions: for aged-related increase in MDA: aging at 25° C
Experimental: Measurement of malondialdehyde (MDA) was performed using a Thiobarbituric acid reactive substances (TBARS) assay kit (10009055^o Caymen Chemical) as per manufacturer instructions using reduced reaction volumes of 1 mL. For C. elegans samples with acute glutathione depletion^o Day 1 adults were treated with and without 20 mM DEM for 6 h at 25° C. prior to collection. For aging^o animals were aged at 25° C. and treated with Lip-1 or SIH as previously described. Replicate samples were collected^o washed twice in S-basal^o pelleted by centrifugation. Following removal of excess buffer samples (^˜40 μL) were frozen in liquid-N2 and stored at −80° C. until needed. Samples were then homogenized via a Bioruptor bath sonicator (Diagenode^o set on ‘high power’ with 10 cycles of 10 s pulses with a 10 s pause between pulses^o at 4° C.)^o then centrifuged at 21^o500×g at 4° C. for 30 min and the supernatant retained. The concentration of protein was determined using a BCA assay kit (Pierce) and equivalent aliquots of 20-25 μg total protein used for subsequent measurements.

total glutathione = assay: Quantification of total glutathione; conditions: for glutathione depletion induced by DEM: Day 4 animals; for age-dependent decrease in glutathione: treated from L4, assayed on Day 4 of adult life
Experimental: Measurement of total glutathione was based on established protocols and is based on a kinetic spectrophotometric assay using the reaction between GSH and 5^o5′-dithio-bis (2-nitrobenzoic acid) (DTNB) measured at 412 nm (Caito and Aschner^o 2015; Rahman et al.^o 2006). All reagents were freshly prepared prior to the assay and for each estimate 50 adults were collected in 200 μL of S-basal (Brenner^o 1974) in 1.7 ml microfuge tubes. Animals were washed twice in S-basal^o pelleted via centrifugation and total volume reduced to 20 μL. A 50 μL aliquot of Extraction Buffer was added then the samples were frozen in Liquid N2 and store at −80° C. until required. Extraction buffer consisted of 6 mg/mL 5-sulfosalicylic acid dehydrate^o 0.1% v/v Triton X-100 and Complete^o EDTA-free Proteinase inhibitor cocktail (Roche) in KPE buffer (0.1 M potassium phosphate buffer and 5 mM EDTA at pH 7.5).
Samples were homogenized with a Bioruptor Next Gen (Diagenode) bath sonicator^o set on HIGH and cooled to 4° C.^o using 10 cycles of 10 seconds ON and 10 seconds OFF. Supernatant was collected following a 14K×g spin at 4° C. Assays were performed in 96 well microplates (clear polystyrene^o flat-bottomed^o Greiner bio-one)^o in a total volume of 200 μL per well. To each well was added 50 μL of lysate supernatant^o 50 μL of milli-Q H2O and then 100 μL of GA buffer (NADPH 400 μM^o glutathione reductase 1 U/mL and 0.3 mM DTNB in KPE buffer diluent). Reactions were incubated for 1-2 min at room temperature and then absorbance measured at 412 nm for 10 min with 1 min interval using a Powerwave plate spectrophotometer (BioTek). The rate of change in absorbance per minute is linearly proportional to the total concentration of GSH. Total GSH in the samples was interpolated from using linear regression from a standard curve of known GSH concentrations (0 to 1 μM) run in tandem. In parallel^o the concentration of total protein per sample was also determined by a Bicinchoninic acid (BCA) assay (Pierce) using the manufacturers protocol. Total GSH estimates were then normalized for protein load thous accounting for any size differences between populations. Within experiment results are presented as relative glutathione levels^o where results are normalized to the mean of the starting population.

[1] = 10 mM DEM, 24-hour exposure, 4-day old adult worms

SMILES | DEM toxicity (survival) (C. elegans strain TJ1060) | DAF-16 nuclear translocation (DAF-16) | aged-related increase in MDA (malondialdehyde (MDA)) | glutathione depletion induced by DEM (total glutathione) | age-dependent decrease in glutathione (total glutathione) | lethality (C. elegans strain TJ1060; [1]) | death of adult worms (C. elegans strain TJ1060; DEM≥1 mM, 4-day old adult worms, dose- and time-dependent) | DAF-16 nuclear localization (DAF-16; 10 mM DEM, positive control) | relative amounts of MDA (malondialdehyde (MDA); acute glutathione depletion by DEM exposure (20 mM, 6 h, Day 1 adults)) | depletion of glutathione (total glutathione; [1])
Clc1cccc(CNC2=Nc3ccccc3NC23CCNCC3)c1 [Lip-1, N-[(3-chlorophenyl)methyl]-spiro[piperidine-4,2′(1′H)-quinoxalin]-3′-amine] | rescued | Neither 250 μM SIH nor 200 μM Lip-1 induced DAF-16 nuclear translocation | ameliorated | did not prevent the fall in glutathione | did not prevent the fall in glutathione |  |  |  |  | 
CCOC(=O)/C=C\C(=O)OCC [DEM, Diethyl maleate] |  |  |  |  |  | ≈ 50% | induced death | did induce nuclear localization of DAF-16 | marked increase | ≈ 50%
O=C(N/N=C/c1ccccc1O)c1ccncc1 [SIH, Salicylaldehyde isonicotinoyl hydrazone] | rescued | Neither 250 μM SIH nor 200 μM Lip-1 induced DAF-16 nuclear translocation | ameliorated | mitigated the glutathione depletion induced by DEM | prevented the age-dependent decrease in glutathione |  |  |  |  | 
